The target of assay [1] is T1, 5-HT6 receptor (Homo sapiens (Human), UniProt P50406). Put plainly: Functional assay: inhibition of serotonin-induced intracellular cAMP in HEK 293 cells expressing 5-HT6 receptor (LANCE cAMP). The class given is cell-based. Particulars: for inhibition at 10 µM: HEK293, read-out: % inhibition of 5-HT6 receptors, 10 μM solutions of compounds; for IC50: HEK 293 cells expressing 5-HT6 receptor, read-out: IC50 inhibition of serotonin 5-HT6 receptors in the setting of functional assay (serotonin-stimulated intracellular cAMP production). As for the experimental part:
Determination of antagonistic activity of compounds of general formula 1 towards 5-HT6 receptors. Compounds of general formula 1 were tested for their ability to prevent 5-HT6 receptor activation by serotonin. HEK 293 cells (cells of human embryo's kidney) with artificially expressed 5-HT6 receptor, activation of which by serotonin leads to increasing the concentration of intracellular cAMP were used. The content of intracellular cAMP was determined using reagent kit LANCE cAMP (PerkinElmer) according to the method described by the manufacturer of the kit [http://las.perkinelmer.com/content/Manuals/MAN_LANCEcAMP384KitUser.pdf].
Effectiveness of compounds was estimated by their ability to reduce the content of intracellular cAMP induced by serotonin.
(Time-resolved FRET reads energy transfer from a long-lived donor to a nearby acceptor.)

Assay [2] addresses T1, 5-HT6 receptor. Put plainly: Competitive radioligand binding ([3H] Lysergic acid diethylamide) to membranes of HeLa cells expressing recombinant human 5-HT6 receptors. As for the experimental part:
Activity determination of serotonin 5-HT6 receptor antagonists of the general formula 1 in the setting of competitive binding to serotonin 5-HT6 receptors.
Screening of the disclosed compounds for their potential ability to interact with serotonin 5-HT6 receptors was carried out by method of radioligand binding. For this purpose membrane species were prepared from expressing recombinant human 5-HT6 receptors HeLa cells by means of their homogenization in glass homogenizer with subsequent separation of plasmatic membranes from cell nucli, mitochondria's and cell wreckages by differential centrifugation. Determination of tested compounds binding with 5-HT6 receptors was carried out according to the method described in [Monsma F J Jr, Shen Y, Ward R P, Hamblin M W and Sibley D R, Cloning and expression of a novel serotonin receptor with high affinity for tricyclic psychotropic drugs. Mol Pharmacol. 43:320-327, 1993]. […] After incubation the samples were filtered in vacuo on glass-microfiber filters G/F (Millipor, USA), filters were washed three times with cold solution of medium and radioactivity was measured by scintillation counter MicroBeta 340 (PerkinElmer, USA). […] Binding of tested compounds to the receptor was determined by their ability to displace the radioligand and expressed in percent of displacement. The percent of displacement was calculated according to the following equation:
[formula] wherein: TA—was overall radioactivity in the presence of radioligand only, CA—was radioactivity in the presence of radioligand and tested compound and NA—was radioactivity in the presence of radioligand and Serotonin (5 μM).

Assay [3] relates to food consumption (appetite) in rats. Nature of the assay: Appetite control test in food-deprived rats. In kind it is in vivo, rat. Particulars: Vistar rats, 16 h food deprivation, 10 mg/kg intraperitoneally 60 min before test (FIG. 2 legend: 1 mg/kg). As for the experimental part:
Appetite control test. Male rats of Vistar line weighing 230-360 g were housed in standard home cages with water and food available with the exception of short periods of food deprivation (16 hs) just before the Appetite test. The Appetite test was carried out in individual cages with overhead cover made of wire in the niches of which a portion of food granules was inserted. Mass of the granules was examined every 30 minutes for 3 h. On the basis of these measurements food consumption was estimated and stated in grams of food per kilogram of body mass. Placebo and the compound 1.1(1) (dose 10 mg/kg) were injected intraperitoneally 60 minutes before the test. Each experimental group of animals consisted of 10 rats. Compound was dissolved in sterilized water. The injection volume was 10 ml/kg. Intact animals which were not undergone food deprivation, and animals after food deprivation, but injected with sterilized water, were used as control. […]

Assay [4] has as its system prepulse inhibition of startle in mice. Put plainly: Prepulse inhibition of the startle response in mice (Apomorphine-induced disturbance). Particulars: SHK mice, 1 mg/kg, 60 min before test. In kind it is in vivo, mouse. On the procedure:
Antipsychotic activity of compounds of the general formula 1 in “Prepulse inhibition of the startle response in mice” test. Mice of SHK line weighing about 24-30 g were used in the test. Experiments were carried out during light period of animal's diurnal. Apomorphine hydrochloride and Haloperidol were received from Sigma Chemicals Company, (USA). Apomorphine hydrochloride was dissolved in 0.1% solution of ascorbic acid prepared with sterilized water; it was administered subcutaneously 15 minutes before the test. Haloperidol was dissolved in sterilized water using emulsifier Twin 80, it was administered intraperitoneally 60 minutes before the test. The compound 1.1(1) was dissolved in sterilized water, it was introduced subcutaneously 60 minutes before the test. Injection volume was 10 ml/kg. Solution of ascorbic acid prepared with sterilized water and Twin 80 were injected to control group of animals.
The test instrument consisted of a chamber made of transparent plexiglass (manufacturer—Columbia Instruments Company, USA) and placed on a platform the latter was lodged inside the sound insulating chamber. High frequency sound column transmitting acoustic stimulus was located 2 cm away from the platform. […] Inhibition of the startle in reply to prepulse-plus-pulse stimulus was calculated in percentage towards amplitude of startle in response to isolated pulse stimulus. […]

The values below come from US8829009B2, “Substituted 2-amino-3-(sulfonyl)pyrazolo[1,5-a]pyrimidines - serotonin 5-HT6 receptor antagonists, method for use thereof” (priority 2008, dated 2014).

What is called inhibition is the change of the read-out against control, counted positive when it falls. What is called IC50 is the concentration at which inhibition is half-maximal. One may read the Ki as a dissociation constant, usually derived from enzyme kinetics or from competition with a known ligand.

T1 sequence (P50406 whole entry): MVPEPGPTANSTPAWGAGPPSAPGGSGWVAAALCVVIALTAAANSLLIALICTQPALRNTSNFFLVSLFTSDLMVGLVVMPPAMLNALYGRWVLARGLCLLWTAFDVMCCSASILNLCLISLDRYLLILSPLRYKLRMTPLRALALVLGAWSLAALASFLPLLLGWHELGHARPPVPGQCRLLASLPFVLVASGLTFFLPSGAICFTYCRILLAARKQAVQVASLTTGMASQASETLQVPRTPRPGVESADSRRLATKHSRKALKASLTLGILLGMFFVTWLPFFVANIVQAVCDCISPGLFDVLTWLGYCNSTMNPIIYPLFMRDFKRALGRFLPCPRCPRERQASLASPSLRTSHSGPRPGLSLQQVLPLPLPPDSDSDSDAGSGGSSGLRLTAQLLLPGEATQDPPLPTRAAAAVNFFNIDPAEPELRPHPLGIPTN

For `Cc1ccc(S(=O)(=O)c2c(Nc3ccccc3)nn3c(C)c(C)c(C)nc23)cc1` [1(1)], the inhibition at 10 µM on 5-HT6 receptor [1] stood at 77%.

For the compound `CNc1nn2c(-c3ccccc3)cc(C)nc2c1S(=O)(=O)c1ccccc1` [1(2)], the inhibition at 10 µM on 5-HT6 receptor [1] turned out to be 90%.

Turning to `CNc1nn2c(C)cc(-c3ccccc3)nc2c1S(=O)(=O)c1ccccc1` [1(3)], the inhibition at 10 µM on 5-HT6 receptor [1] came to 91%.

Turning to `CNc1nn2c(C)cc(C)nc2c1S(=O)(=O)c1ccncc1` [1(4)], on 5-HT6 receptor [1], the inhibition at 10 µM was 97%.

As for `CNc1nn2c(C)cc(C)nc2c1S(=O)(=O)c1cccnc1` [1(5)], the inhibition at 10 µM at 5-HT6 receptor [1] was 95%.

As for `CNc1nn2c(C)cc(C)nc2c1S(=O)(=O)c1cccs1` [1(6)], the inhibition at 10 µM at 5-HT6 receptor [1] worked out at 98%.

With `CCNc1nn2c(C)cc(C)nc2c1S(=O)(=O)c1ccccc1` [1(7)], the inhibition at 10 µM at 5-HT6 receptor [1] amounted to 104%.

For the compound `Cc1cc(C)n2nc(NCCN(C)C)c(S(=O)(=O)c3ccccc3)c2n1` [1(8)], at 5-HT6 receptor [1], the inhibition at 10 µM was 91%.

In the case of `Cc1cc(C)n2nc(N(C)CCN(C)C)c(S(=O)(=O)c3ccccc3)c2n1` [1(9)], at 5-HT6 receptor [1], the inhibition at 10 µM was 88%.

For `Cc1cc(C)n2nc(NCCCN(C)C)c(S(=O)(=O)c3ccccc3)c2n1` [1(10)], on 5-HT6 receptor [1], the inhibition at 10 µM is 94%.

Consider `Cc1cc(C)n2nc(N3CCN(C(=O)OC(C)(C)C)CC3)c(S(=O)(=O)c3ccccc3)c2n1` [1(11)], for which the inhibition at 10 µM at 5-HT6 receptor [1] amounted to 63%.

Regarding `Cc1cc(C)n2nc(N3CCNCC3)c(S(=O)(=O)c3ccccc3)c2n1` [1(12)], the inhibition at 10 µM at 5-HT6 receptor [1] came to 76%.

With `Cc1cc(C)n2nc(N3CCN(C)CC3)c(S(=O)(=O)c3ccccc3)c2n1` [1(13)], the inhibition at 10 µM on 5-HT6 receptor [1] amounted to 80%.

`Cc1ccc(Nc2nn3c(C)cc(C)nc3c2S(=O)(=O)c2ccc(C)cc2)cc1` [1(14)]: the inhibition at 10 µM on 5-HT6 receptor [1] was 70%.

In the case of `CNc1nn2c(C)cc(C)nc2c1S(=O)(=O)c1ccccc1` [1.1(1), 2-methylamino-5,7-dimethyl-3-(phenylsulfonyl)pyrazolo[1,5-a]pyrimidine], the IC50 at 5-HT6 receptor [2] (1.5 nM [3H] Lysergic acid diethylamide, 120 min at 37° C., read-out: IC50 in the setting of competitive binding) amounted to 0.511 nM. For the same compound, the Ki at 5-HT6 receptor [2] (1.5 nM [3H] Lysergic acid diethylamide, 120 min at 37° C., read-out: Ki in the setting of competitive binding) stood at 0.237 nM. At 5-HT6 receptor [2] (quantity not specified, differs from Table 4), the “activity of serotonin 5-HT6 receptor antagonist” value is 4.61 nM. Further, in assay [3], the “effect on appetite (food consumption) after food deprivation” value is “capable to prevent appetite rising in rats”. For the same compound, the “effect on disturbance of prepulse inhibition of startle caused by Apomorphine” value in assay [4] is “prevented disturbance of prepulse inhibition of startle caused by Apomorphine”. At 5-HT6 receptor [1], the inhibition at 10 µM amounted to 77% and the IC50 turned out to be 5 nM.

`Cc1cc(C)n2nc(N(C)C)c(S(=O)(=O)c3ccccc3)c2n1` [1.1(2), 2-dimethylamino-5,7-dimethyl-3-(phenylsulfonyl)pyrazolo[1,5-a]pyrimidine]: at 5-HT6 receptor [1], the inhibition at 10 µM worked out at 86% and the IC50 was 1180 nM.

On to `CNc1nn2c(C)cc(C)nc2c1S(=O)(=O)c1ccc(F)cc1` [1.1(3), 2-methylamino-5,7-dimethyl-3-(4-fluorophenylsulfonyl)pyrazolo[1,5-a]pyrimidine], for which, on 5-HT6 receptor [1], the inhibition at 10 µM was 99% and the IC50 stood at 6 nM.

For the compound `Cc1cc(C)n2nc(N(C)C)c(S(=O)(=O)c3ccc(F)cc3)c2n1` [1.1(4), 2-dimethylamino-5,7-dimethyl-3-(4-fluorophenylsulfonyl)pyrazolo[1,5-a]pyrimidine], the inhibition at 10 µM at 5-HT6 receptor [1] was 95%.

For the compound `CNc1nn2c(C)cc(C)nc2c1S(=O)(=O)c1cccc(F)c1` [1.1(5), 2-methylamino-5,7-dimethyl-3-(3-fluorophenylsulfonyl)pyrazolo[1,5-a]pyrimidine], on 5-HT6 receptor [1], the inhibition at 10 µM was determined as 97% and the IC50 was determined as 5 nM.

Turning to `Cc1cc(C)n2nc(N(C)C)c(S(=O)(=O)c3cccc(F)c3)c2n1` [1.1(6), 2-dimethylamino-5,7-dimethyl-3-(3-fluorophenylsulfonyl)pyrazolo[1,5-a]pyrimidine], the inhibition at 10 µM at 5-HT6 receptor [1] came to 97%.

As to `CNc1nn2c(C)cc(C)nc2c1S(=O)(=O)c1cccc(Cl)c1` [1.1(7), 2-methylamino-5,7-dimethyl-3-(3-chlorophenylsulfonyl)pyrazolo[1,5-a]pyrimidine], on 5-HT6 receptor [1], the inhibition at 10 µM amounted to 100% and the IC50 is 2 nM.

Regarding `Cc1cc(C)n2nc(N(C)C)c(S(=O)(=O)c3cccc(Cl)c3)c2n1` [1.1(8), 2-dimethylamino-5,7-dimethyl-3-(3-chlorophenylsulfonyl)pyrazolo[1,5-a]pyrimidine], the inhibition at 10 µM on 5-HT6 receptor [1] was determined as 96%.

For `CNc1nn2c(C)cc(C)nc2c1S(=O)(=O)c1ccc(F)c(Cl)c1` [1.1(9)], at 5-HT6 receptor [1], the inhibition at 10 µM is 97% and the IC50 stood at 4 nM.

Take `O=C(CCCN1CCC(O)(c2ccc(Cl)cc2)CC1)c1ccc(F)cc1` [Haloperidol, reference compound]: the “effect on disturbance of prepulse inhibition of startle caused by Apomorphine” value in assay [4] was “prevented disturbance of prepulse inhibition of startle caused by Apomorphine”.
